ChEMBL document CHEMBL5291721, “A preclinical secondary pharmacology resource illuminates target-adverse drug reaction associations of marketed drugs” (Nat Commun, 2023)

Legend:
[1] = molecular target: T1, Alpha-2B adrenergic receptor (Homo sapiens, UniProt P18089)
T1 sequence (P18089 whole entry): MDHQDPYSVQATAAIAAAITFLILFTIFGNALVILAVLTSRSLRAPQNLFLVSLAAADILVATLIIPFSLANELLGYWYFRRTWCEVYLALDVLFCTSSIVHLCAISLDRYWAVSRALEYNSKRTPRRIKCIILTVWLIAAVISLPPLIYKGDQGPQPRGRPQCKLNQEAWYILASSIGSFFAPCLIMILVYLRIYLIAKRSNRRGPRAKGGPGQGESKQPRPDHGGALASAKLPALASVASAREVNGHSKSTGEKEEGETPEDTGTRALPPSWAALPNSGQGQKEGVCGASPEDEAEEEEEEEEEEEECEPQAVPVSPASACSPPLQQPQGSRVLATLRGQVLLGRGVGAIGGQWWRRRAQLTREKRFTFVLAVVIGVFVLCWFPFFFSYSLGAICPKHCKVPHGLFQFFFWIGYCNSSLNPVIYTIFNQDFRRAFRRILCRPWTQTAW

Vasopressin V2 receptor = Vasopressin V2 receptor (Homo sapiens, UniProt P30518)
Vasopressin V2 receptor, sequence (P30518 whole entry): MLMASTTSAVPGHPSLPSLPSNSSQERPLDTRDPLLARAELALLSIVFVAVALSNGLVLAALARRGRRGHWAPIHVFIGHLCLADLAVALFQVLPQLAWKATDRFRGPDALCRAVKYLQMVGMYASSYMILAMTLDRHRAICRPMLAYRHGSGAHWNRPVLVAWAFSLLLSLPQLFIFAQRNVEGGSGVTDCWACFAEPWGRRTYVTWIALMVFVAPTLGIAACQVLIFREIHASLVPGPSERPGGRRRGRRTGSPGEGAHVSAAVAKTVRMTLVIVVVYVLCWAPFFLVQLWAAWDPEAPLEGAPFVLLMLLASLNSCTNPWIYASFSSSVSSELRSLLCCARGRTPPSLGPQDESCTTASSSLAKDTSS

[2] = molecular target: 5-hydroxytryptamine receptor 2A (Homo sapiens, UniProt P28223); format: functional, cell-based
5-hydroxytryptamine receptor 2A, sequence (P28223 whole entry): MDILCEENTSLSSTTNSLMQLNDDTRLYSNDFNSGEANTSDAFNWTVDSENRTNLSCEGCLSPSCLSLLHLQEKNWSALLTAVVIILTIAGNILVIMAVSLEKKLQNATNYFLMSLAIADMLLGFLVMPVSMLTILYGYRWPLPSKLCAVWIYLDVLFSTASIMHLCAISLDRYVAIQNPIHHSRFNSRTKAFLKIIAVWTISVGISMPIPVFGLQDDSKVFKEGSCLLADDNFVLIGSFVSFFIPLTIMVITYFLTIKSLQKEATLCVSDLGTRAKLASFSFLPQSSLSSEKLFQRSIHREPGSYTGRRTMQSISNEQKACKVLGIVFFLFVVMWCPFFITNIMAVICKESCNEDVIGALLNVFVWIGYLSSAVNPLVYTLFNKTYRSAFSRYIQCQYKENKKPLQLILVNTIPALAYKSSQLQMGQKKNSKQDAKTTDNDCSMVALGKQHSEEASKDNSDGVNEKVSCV

[3] = molecular target: Sodium-dependent serotonin transporter (Homo sapiens, UniProt P31645)
Sodium-dependent serotonin transporter, sequence (P31645 whole entry): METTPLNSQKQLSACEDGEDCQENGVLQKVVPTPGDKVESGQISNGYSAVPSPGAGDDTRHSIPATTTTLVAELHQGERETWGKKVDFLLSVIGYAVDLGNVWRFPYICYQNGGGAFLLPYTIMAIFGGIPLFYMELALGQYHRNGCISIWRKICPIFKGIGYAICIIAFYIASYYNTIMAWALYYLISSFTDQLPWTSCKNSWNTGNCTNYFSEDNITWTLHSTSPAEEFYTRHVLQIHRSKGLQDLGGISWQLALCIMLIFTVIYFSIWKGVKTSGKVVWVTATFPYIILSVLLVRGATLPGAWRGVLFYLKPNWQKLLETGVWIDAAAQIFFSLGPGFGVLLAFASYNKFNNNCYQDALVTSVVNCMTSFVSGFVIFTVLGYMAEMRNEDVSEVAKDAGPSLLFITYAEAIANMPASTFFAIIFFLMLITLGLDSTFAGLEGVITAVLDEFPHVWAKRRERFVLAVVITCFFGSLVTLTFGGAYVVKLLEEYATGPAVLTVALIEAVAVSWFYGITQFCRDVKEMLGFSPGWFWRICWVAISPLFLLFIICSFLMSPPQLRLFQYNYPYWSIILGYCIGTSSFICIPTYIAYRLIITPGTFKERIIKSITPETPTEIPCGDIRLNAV

[4] = molecular target: T2, Alpha-1A adrenergic receptor (Homo sapiens, UniProt P35348); format: functional, cell-based
T2 sequence (P35348 whole entry): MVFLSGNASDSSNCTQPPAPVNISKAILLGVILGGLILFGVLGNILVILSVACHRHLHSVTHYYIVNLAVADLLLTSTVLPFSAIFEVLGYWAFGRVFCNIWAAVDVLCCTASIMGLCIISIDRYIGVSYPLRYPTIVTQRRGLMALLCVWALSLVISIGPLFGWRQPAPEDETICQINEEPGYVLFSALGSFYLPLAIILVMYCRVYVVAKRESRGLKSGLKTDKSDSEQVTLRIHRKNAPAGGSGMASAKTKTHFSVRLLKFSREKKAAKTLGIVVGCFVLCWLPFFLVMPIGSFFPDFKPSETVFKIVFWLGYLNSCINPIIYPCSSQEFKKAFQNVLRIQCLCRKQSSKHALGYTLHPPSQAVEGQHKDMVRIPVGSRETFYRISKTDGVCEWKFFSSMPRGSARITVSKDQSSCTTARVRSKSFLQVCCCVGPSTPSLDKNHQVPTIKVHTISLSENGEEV

[5] = molecular target: Vascular endothelial growth factor receptor 2 (Homo sapiens, UniProt P35968); format: functional
Vascular endothelial growth factor receptor 2, sequence (P35968 whole entry): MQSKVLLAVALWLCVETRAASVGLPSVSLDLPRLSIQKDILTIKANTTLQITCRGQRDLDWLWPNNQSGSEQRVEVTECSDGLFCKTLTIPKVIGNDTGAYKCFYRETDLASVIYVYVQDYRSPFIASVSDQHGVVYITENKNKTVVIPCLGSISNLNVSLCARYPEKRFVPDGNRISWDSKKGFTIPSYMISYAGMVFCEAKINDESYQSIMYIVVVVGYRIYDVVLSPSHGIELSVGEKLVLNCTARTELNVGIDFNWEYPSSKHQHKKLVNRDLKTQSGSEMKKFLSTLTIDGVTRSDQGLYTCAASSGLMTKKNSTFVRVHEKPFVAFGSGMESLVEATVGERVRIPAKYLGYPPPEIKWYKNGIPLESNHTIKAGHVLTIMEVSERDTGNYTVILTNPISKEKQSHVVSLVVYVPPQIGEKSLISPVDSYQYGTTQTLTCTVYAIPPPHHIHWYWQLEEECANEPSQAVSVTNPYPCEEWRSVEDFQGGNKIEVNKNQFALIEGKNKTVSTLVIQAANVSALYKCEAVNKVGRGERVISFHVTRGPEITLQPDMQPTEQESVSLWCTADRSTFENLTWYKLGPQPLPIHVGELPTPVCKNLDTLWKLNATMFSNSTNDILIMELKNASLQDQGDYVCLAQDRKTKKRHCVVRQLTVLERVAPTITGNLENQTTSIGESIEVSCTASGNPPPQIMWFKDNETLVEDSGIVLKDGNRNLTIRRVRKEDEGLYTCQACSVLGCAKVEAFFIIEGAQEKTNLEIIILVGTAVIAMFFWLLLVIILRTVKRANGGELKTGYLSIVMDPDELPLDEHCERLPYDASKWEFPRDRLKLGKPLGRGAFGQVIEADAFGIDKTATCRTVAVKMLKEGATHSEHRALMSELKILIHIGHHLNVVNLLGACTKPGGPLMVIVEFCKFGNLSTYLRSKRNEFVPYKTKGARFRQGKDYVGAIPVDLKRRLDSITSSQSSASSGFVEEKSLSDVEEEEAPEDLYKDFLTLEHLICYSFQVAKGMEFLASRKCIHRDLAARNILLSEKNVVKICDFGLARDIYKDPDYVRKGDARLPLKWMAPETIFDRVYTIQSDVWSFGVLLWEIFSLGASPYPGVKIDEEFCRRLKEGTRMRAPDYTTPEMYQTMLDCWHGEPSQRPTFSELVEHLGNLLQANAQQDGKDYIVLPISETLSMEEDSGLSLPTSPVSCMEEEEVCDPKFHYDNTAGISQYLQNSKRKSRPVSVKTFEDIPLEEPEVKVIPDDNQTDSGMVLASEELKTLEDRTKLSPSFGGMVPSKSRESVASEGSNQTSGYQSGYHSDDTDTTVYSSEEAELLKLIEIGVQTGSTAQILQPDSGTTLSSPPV

[6] = molecular target: T3, Amine oxidase [flavin-containing] A (Homo sapiens, UniProt P21397); format: functional
T3 sequence (P21397 whole entry): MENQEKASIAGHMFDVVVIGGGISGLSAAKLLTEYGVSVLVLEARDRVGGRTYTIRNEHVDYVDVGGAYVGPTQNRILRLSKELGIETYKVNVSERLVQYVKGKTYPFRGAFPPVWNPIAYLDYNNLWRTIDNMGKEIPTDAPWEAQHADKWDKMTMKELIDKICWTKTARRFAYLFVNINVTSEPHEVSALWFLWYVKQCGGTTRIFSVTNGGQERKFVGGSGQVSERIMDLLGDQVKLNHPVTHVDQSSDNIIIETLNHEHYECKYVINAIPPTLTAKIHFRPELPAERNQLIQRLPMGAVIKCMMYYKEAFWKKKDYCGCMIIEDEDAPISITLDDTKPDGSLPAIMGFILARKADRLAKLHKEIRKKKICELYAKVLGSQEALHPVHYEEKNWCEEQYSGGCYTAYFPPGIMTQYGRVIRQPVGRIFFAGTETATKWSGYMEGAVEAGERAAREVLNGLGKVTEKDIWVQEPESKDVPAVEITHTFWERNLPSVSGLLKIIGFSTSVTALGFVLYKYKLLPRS

[7] = molecular target: cGMP-inhibited 3',5'-cyclic phosphodiesterase 3A (Homo sapiens, UniProt Q14432); format: functional
cGMP-inhibited 3',5'-cyclic phosphodiesterase 3A, sequence (Q14432 whole entry): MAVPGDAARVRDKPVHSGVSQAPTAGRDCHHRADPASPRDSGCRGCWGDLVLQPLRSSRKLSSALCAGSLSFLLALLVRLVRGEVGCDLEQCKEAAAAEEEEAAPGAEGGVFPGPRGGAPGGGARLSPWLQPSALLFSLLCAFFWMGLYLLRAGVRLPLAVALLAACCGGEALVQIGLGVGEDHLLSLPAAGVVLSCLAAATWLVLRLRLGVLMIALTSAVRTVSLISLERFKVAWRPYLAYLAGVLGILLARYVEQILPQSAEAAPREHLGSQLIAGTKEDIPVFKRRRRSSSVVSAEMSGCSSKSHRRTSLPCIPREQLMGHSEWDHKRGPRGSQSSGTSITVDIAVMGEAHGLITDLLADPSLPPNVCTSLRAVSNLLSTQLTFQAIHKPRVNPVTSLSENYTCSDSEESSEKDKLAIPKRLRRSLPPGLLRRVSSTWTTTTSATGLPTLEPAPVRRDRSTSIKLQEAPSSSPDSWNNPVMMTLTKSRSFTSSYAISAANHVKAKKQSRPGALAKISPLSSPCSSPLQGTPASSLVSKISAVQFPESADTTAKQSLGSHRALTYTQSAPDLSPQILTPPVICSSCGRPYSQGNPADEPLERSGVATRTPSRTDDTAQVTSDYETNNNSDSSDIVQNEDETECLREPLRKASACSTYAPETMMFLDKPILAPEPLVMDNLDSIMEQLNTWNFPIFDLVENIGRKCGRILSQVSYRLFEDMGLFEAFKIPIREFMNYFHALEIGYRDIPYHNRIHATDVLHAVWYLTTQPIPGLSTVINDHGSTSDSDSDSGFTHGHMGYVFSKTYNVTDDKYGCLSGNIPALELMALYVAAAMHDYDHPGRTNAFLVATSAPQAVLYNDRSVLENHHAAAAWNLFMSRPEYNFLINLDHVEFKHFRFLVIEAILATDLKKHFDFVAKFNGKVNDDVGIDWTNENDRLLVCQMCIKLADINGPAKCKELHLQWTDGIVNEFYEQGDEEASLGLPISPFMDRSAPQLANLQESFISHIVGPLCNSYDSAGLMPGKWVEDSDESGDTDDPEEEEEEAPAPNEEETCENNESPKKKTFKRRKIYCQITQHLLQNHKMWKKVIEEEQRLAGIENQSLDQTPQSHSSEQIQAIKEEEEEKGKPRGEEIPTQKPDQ

[8] = molecular target: Prostaglandin G/H synthase 1 (Homo sapiens, UniProt P23219); format: functional
Prostaglandin G/H synthase 1, sequence (P23219 whole entry): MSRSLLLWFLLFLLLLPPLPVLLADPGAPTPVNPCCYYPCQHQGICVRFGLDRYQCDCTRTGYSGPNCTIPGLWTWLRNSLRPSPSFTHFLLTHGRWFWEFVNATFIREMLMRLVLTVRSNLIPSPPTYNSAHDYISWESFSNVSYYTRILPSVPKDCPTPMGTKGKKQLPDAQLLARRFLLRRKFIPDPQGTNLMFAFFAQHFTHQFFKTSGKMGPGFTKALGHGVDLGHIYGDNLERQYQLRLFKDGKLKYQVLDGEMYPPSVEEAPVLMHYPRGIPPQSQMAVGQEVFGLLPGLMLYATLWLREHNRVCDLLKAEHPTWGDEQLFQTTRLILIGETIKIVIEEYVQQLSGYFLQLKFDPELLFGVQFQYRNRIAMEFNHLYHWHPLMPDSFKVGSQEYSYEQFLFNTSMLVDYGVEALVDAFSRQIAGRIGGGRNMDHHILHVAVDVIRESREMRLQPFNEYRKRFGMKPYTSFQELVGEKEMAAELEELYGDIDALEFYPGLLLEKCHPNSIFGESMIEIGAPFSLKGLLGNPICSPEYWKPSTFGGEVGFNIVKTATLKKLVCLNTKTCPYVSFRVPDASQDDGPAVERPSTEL
Further: assay procedure not described here.

| AC50 [1] | AC50 (Vasopressin V2 receptor) | AC50 [2] | AC50 [3] | SMILES | AC50 [4] | AC50 [5] | AC50 [6] | AC50 [7] | AC50 [8] |
| --- | --- | --- | --- | --- | --- | --- | --- | --- | --- |
| > 30 µM | > 30 µM | > 30 µM | > 30 µM | CCCCN1C[C@H](O)[C@@H](O)[C@H](O)[C@H]1CO | – | – | – | – | – |
| > 30 µM | > 30 µM | > 30 µM | > 30 µM | Nc1nc(NC2CC2)c2ncn([C@H]3C=C[C@@H](CO)C3)c2n1 [ABACAVIR] | – | – | – | – | – |
| > 30 µM | > 30 µM | > 30 µM | > 30 µM | CC(=O)NCCCS(=O)(=O)O [ACAMPROSATE] | – | – | – | – | – |
| – | – | – | – | CC(=O)Nc1ccc(O)cc1 [ACETAMINOPHEN] | > 30 µM | > 30 µM | > 10 µM | > 30 µM | > 30 µM |
| 8.9 µM | > 30 µM | > 30 µM | > 30 µM | COc1cc2nc(N(C)CCCNC(=O)C3CCCO3)nc(N)c2cc1OC (stereo not drawn) [ALFUZOSIN] | – | – | – | – | – |
| – | – | – | – | COC(c1ccccc1)(c1ccccc1)[C@H](Oc1nc(C)cc(C)n1)C(=O)O [AMBRISENTAN] | > 30 µM | > 30 µM | > 30 µM | > 30 µM | > 30 µM |
| > 30 µM | – | > 30 µM | > 30 µM | CNC(=O)c1ccccc1Sc1ccc2c(/C=C/c3ccccn3)n[nH]c2c1 [AXITINIB] | – | – | – | – | – |
| – | – | – | – | CCc1oc2ccccc2c1C(=O)c1cc(I)c(O)c(I)c1 [BENZIODARONE] | – | – | > 30 µM | > 30 µM | 8.33 µM |
| – | – | – | – | CN(C)CCn1nnnc1SCC1=C(C(=O)O)N2C(=O)[C@@H](NC(=O)Cc3csc(N)n3)[C@H]2SC1 [CEFOTIAM] | > 30 µM | – | > 30 µM | > 30 µM | > 30 µM |
| – | – | – | – | COCc1c(C(C)C)nc(C(C)C)c(/C=C/[C@@H](O)C[C@@H](O)CC(=O)O)c1-c1ccc(F)cc1 [CERIVASTATIN] | 25.2 µM | > 30 µM | > 30 µM | > 30 µM | > 30 µM |
| – | – | – | – | Oc1c(Cl)cc(Cl)c2cccnc12 [CHLOROXINE] | > 30 µM | > 30 µM | > 30 µM | > 30 µM | > 0.3 µM |
| – | – | – | – | C[N+](C)(C)CCO [CHOLINE] | > 30 µM | – | > 30 µM | > 30 µM | > 30 µM |
| – | – | – | – | CN(C)[C@@H](c1cccc(O)c1)[C@H]1CCCC[C@H]1O [CIRAMADOL] | > 30 µM | 9.31 µM | > 30 µM | > 30 µM | > 30 µM |
| – | > 10 µM | – | – | CN(C)/N=N/c1[nH]cnc1C(N)=O [DACARBAZINE] | – | – | – | – | – |
| – | – | – | – | CN(C)CC(c1ccc(O)cc1)C1(O)CCCCC1 (stereo not drawn) [DESVENLAFAXINE] | > 30 µM | > 30 µM | > 30 µM | > 30 µM | > 30 µM |
| – | – | – | – | CN(C)CCN1C(=O)c2ccccc2N(C)c2ccccc21 [DIBENZEPIN] | – | > 30 µM | > 30 µM | > 30 µM | > 30 µM |
| – | – | – | – | N[C@H](C(=O)O)[C@H](O)c1ccc(O)c(O)c1 [DROXIDOPA] | – | > 30 µM | > 30 µM | > 30 µM | > 30 µM |
| > 30 µM | > 30 µM | – | > 30 µM | O=C1Nc2ccc(Cl)cc2[C@@](C#CC2CC2)(C(F)(F)F)O1 [EFAVIRENZ] | – | – | – | – | – |

| SMILES | AC50 [1] | AC50 (Vasopressin V2 receptor) | AC50 [2] | AC50 [3] | AC50 [4] | AC50 [5] | AC50 [6] | AC50 [7] | AC50 [8] |
| --- | --- | --- | --- | --- | --- | --- | --- | --- | --- |
| CCCSc1ccc2nc(NC(=O)OC)[nH]c2c1 [ALBENDAZOLE] | – | > 10 µM | – | – | – | – | – | – | – |
| CN1C(=O)CCS(=O)(=O)C1c1ccc(Cl)cc1 (stereo not drawn) [CHLORMEZANONE] | > 10 µM | > 10 µM | > 10 µM | > 10 µM | – | – | – | – | – |
| O=C(Cc1ccc(-c2ccccc2)cc1)Nc1ccccn1 [DIFENPIRAMIDE] | > 30 µM | – | > 30 µM | – | > 10 µM | – | > 30 µM | > 30 µM | > 30 µM |
